# Legend:
# in vitro = conditions: human
# hCoV-229E = hCoV-229E CPE assay in MRC5 cells; assay type: cell-based
# Method: The method of this CPE assay is as follows: In 96-well plates, MRC5 cells were seeded at an appropriate density and cultured at 37° C. and 5% CO2 overnight. […] Then medium in each well was replenished with medium containing serially diluted samples and virus. […] Cytotoxicity of the compounds was assessed under the same conditions, but without virus infection, in parallel. Cell viability was measured by CellTiter Glo following the manufacturer's manual. IC50 and CC50 values were calculated with GraphPad Prism software.
# [1] = system: SARS CoV-2 (USA_WA1/2020); test: microbe, parasite or virus in culture; assay type: cell-based; conditions: Severe acute respiratory syndrome coronavirus 2, Vero C1008; SARS-CoV-2 CPE assay, reference compounds
structure (smiles),measurement,setting,value
CCC(CC)COC(=O)[C@H](C)N[P@](=O)(OC[C@H]1O[C@@](C#N)(c2ccc3c(N)ncnn23)[C@H](O)[C@@H]1O)Oc1ccccc1 [Remdesivir],CC50,in vitro,26.7 µM
same,Selectivity Index (CC50/IC50) (Based upon nM),hCoV-229E; HCoV-229E CPE assay,1508.76
same,IC50,"hCoV-229E; Human coronavirus 229E, MRC5, 72 h, read-out: Antiviral IC50",0.0177 µM
same,IC50,[1],3.9 µM

# Source: patent US20240018207A1, “INTERFERON TAU FC-FUSION PROTEINS AND METHODS FOR TREATING CORONAVIRUS INFECTIONS” (Southlake Pharmaceuticals, Inc., priority 2020, published 2024)
